These results are taken from patent publication US10570155B2, “Imidazooxazole derivative having antitumor effect, and pharmaceutical composition including same” (KOREA INSTITUTE OF SCIENCE AND TECHNOLOGY, priority 2016, dated 2020).

For one assay, the system named is A375. Briefly: NCI cancer cell line panel screening (SRB), melanoma cell line A375. Conditions: Homo sapiens, A-375, read-out: IC50 against melanoma cell line in vitro. It counts as cell-based. On the procedure:
(§1) According to the standard protocol (http://dtp.nci.nih.gov/dtpstandard/dwindex/index.isp) of the US National Cancer Institute (NCI) (www.dtp.nci.nih.gov), screening of a cancer cell line panel was performed. Briefly, human cell lines were allowed to grow in an RPMI 1640 medium containing 5% FBS and 2 mM L-glutamine. For a general screening experiment, cells were inoculated in 96-well microtiter plates in 100 μl at a plating density ranging from 5000 cells/well to 40,000 cells/well depending on the doubling time of individual cell lines. After cell inoculation, the microtiter plates were incubated at 37° C., 5% CO2, 95% air, and 100% relative humidity for 24 hours prior to addition of test compounds. 24 hours later, two plates of each cell line were fixed in situ with trichloroacetic acid (TCA) to measure the cell population for each cell line at the time of test compound addition (Tz). Test compounds were solubilized in dimethyl sulfoxide at 400-fold the intended final maximum test concentration, and stored frozen prior to use. At the time of compound addition, an aliquot of frozen concentrate was thawed and diluted to twice the intended final maximum test concentration with a complete medium containing 50 μg/ml of gentamicin. Additional four concentration of 10-fold or ½ log serial dilutions were made to provide a total of five compound concentrations plus control. Aliquots of 100 μl of these different compound dilutions were added to appropriate microtiter wells already containing 100 μl of medium, resulting in the required final compound concentrations.
(§2) Following compound addition, the plates were incubated for additional 48 hours at 37° C., 5% CO2, 95% air, and 100% relative humidity. For adherent cells, the assay was terminated by the addition of cold TCA. Cells were fixed in situ by the gentle addition of 50 μl of cold 50% (w/v) TCA (final concentration, 10% TAC) and incubated at 4° C. for 60 minutes. The supernatant was discarded, and the plates were washed five times with tap water and air-dried. A sulforhodamine B (SRB) solution (100 μl) at 0.4% (w/v) in 1% acetic acid was added to each well, and plates were incubated at room temperature for 10 minutes. After staining, unbound dye was removed by washing five times with 1% acetic acid and the plates were air-dried. Bound stain was subsequently solubilized with 10 mM Trizma base, and the absorbance was read on an automated plate reader at a wavelength of 515 nm. For suspension cells, the methodology was the same except that the assay was terminated by fixing settled cells at the bottom of the wells by gently adding 50 μl of 80% TCA (final concentration, 16% TCA). Using the seven absorbance measurements [time zero (Tz), control growth (C), and test growth rate in the presence of compound at the five concentration levels (Ti)], the growth percentage was calculated at each of the compound concentration levels. Growth inhibition percentage was calculated as follows: [(Ti−Tz)/(C−Tz)]×100 for concentrations for which Ti>/=Tz [(Ti−Tz)/Tz]×100 for concentrations for which Ti<Tz.

The next assay deals with MDA-MB-435. Briefly: NCI cancer cell line panel screening (SRB), melanoma cell line MDA-MB-435. It counts as cell-based. Conditions: Homo sapiens, read-out: IC50 against melanoma cell line in vitro. On the procedure:
as §1, §2

Another assay concerns SK-MEL-2. The assay is described as follows: NCI cancer cell line panel screening (SRB), melanoma cell line SK-MEL-2. It counts as cell-based, human. The following applies: Homo sapiens, read-out: IC50 against melanoma cell line in vitro. On the procedure: as §1, with “Briefly, human cell lines were allowed to grow in an RPMI 1640 medium containing 5% FBS and 2 mM L-glutamine.” left out
as §2, with “Bound stain was subsequently solubilized with 10 mM Trizma base, and the absorbance was read on an automated plate reader at a wavelength of 515 nm.” left out

A further assay has as its target B-RAF (Homo sapiens (Human), UniProt P15056). Briefly: Protein kinase enzymatic activity (Reaction Biology kinase hotspot, 33P-ATP). It counts as biochemical. Conditions: read-out: Inhibitory effect against kinase activity, B-RAF (IC50). On the procedure:
(§3) Reaction biology kinase hotspot service (http://www.reactionbiology.com) was used to measure IC50. In a final reaction volume of 25 μL, kinase (5 mU to 10 mU) was incubated with 25 mM Tris (pH 7.5), 0.02 mM EGTA, 0.66 mg/ml of myelin basic protein, 10 mM magnesium acetate, and [^33P-ATP] (specific activity of about 500 CPM/pmol, concentration as required). The reaction was initiated by addition of Mg-ATP mix. After incubation for 40 min at room temperature, the reaction was stopped by addition of 5 μl of a 3% phosphoric acid solution. 10 μL of the reaction was then spotted onto a P30 filtermat and washed three times for 5 minutes in 75 mM phosphoric acid and once in methanol prior to drying and scintillation counting.

In the next assay the target is C-RAF (Homo sapiens (Human), UniProt P04049, Y340D/Y341D). The description is as above. It counts as biochemical. Conditions: read-out: Inhibitory effect against kinase activity, C-RAF (IC50). On the procedure: as §3
Sequence of C-RAF (P04049 306-648 Y340D/Y341D limits assumed): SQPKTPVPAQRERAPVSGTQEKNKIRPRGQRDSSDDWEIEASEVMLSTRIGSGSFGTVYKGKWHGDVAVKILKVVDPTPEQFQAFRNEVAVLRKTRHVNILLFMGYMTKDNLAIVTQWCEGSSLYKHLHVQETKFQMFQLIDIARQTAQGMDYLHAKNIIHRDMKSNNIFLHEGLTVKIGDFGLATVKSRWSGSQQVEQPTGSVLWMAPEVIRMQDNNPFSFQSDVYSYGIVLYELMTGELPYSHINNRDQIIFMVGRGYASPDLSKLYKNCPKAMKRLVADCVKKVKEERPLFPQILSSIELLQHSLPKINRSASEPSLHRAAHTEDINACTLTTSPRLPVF
A further assay deals with V600E-B-RAF (Homo sapiens (Human), UniProt P15056, V600E). The description is as above. It counts as biochemical. Conditions: read-out: Inhibitory effect against kinase activity, V600E-B-RAF (IC50). On the procedure: as §3
Sequence of V600E-B-RAF (P15056 whole entry V600E): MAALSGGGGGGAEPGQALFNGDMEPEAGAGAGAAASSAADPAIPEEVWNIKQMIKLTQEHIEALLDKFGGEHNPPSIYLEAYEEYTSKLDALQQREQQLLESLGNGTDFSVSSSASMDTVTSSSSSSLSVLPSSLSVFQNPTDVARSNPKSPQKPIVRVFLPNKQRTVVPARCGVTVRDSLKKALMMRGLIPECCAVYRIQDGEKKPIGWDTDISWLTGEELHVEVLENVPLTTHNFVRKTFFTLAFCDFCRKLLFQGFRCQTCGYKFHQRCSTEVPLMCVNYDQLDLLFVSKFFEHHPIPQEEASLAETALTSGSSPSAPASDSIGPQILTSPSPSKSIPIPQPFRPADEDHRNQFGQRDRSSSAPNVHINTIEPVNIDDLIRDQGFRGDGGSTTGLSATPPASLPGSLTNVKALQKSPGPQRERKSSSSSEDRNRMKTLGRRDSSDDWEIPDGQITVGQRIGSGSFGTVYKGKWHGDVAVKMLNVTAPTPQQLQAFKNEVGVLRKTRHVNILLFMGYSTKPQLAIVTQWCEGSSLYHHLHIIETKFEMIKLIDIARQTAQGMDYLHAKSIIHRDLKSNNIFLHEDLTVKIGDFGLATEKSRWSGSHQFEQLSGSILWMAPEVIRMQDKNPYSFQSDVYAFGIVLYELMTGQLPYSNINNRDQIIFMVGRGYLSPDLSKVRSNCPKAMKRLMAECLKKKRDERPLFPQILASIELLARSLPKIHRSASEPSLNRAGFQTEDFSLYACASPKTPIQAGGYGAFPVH

Sequence of B-RAF (P15056 whole entry): as the sequence (P15056 whole entry V600E) above, with E600V counted along it

What is called IC50 is the midpoint of a concentration-inhibition curve. Turning to `CCN1CCN(CCNc2nccc(-c3c(-c4cccc(O)c4)nc4occn34)n2)S1(=O)=O` [2II, 2-Ethyl-5-(2-((4-(6-(3-hydroxylphenyl)imidazo[2,1-b]oxazol-5-yl)pyrimidin-2-yl)amino)ethyl)-1,2,5-thiadiazolidine 1,1-dioxide], the IC50 in the assay on A375 was 190 nM; in the assay with MDA-MB-435, 370 nM; in the assay on SK-MEL-2, 2600 nM; on B-RAF, less than 0.04 nM; on C-RAF, 0.75 nM; on V600E-B-RAF, 0.67 nM.
